Source: patent US10782295B2, “Cysteine-reactive ligand discovery in proteomes” (THE SCRIPPS RESEARCH INSTITUTE, priority 2013, dated 2020)

Key:
[1] = test system: AKT1/2/3; test: competitive isoTOP-ABPP, concentration-dependent HNE; assay type: binding, human; conditions: MDA-MB-231 proteome, read-out: IC50 for inhibition of cysteine (C311) in AKT1/2/3
Procedure: The MDA-MB-231 cell proteome was treated with varying concentrations of HNE (5, 10, 50, 100 and 500 μM) for 60 min and then the IA-labeling profile of each reaction was quantitatively compared to a DMSO-control sample by isoTOP-ABPP.
By combining the R values at all 5 HNE concentrations, we could extrapolate IC50 values for […] of IA probe-labeling for ˜700 of the 1100 cysteines (FIG. 3a).
HNE was purchased from EMD biosciences, 15d-PGJ2 was purchased from Cayman Chemicals and 2-HD was purchased from Santa Cruz Biotechnology. Proteome samples were diluted to a 4 mg protein/mL solution in PBS. […]
IA-probe labeled peptides were identified by SEQUEST2 and DTASelect3, and the quantification of heavy/light ratios (isoTOP-ABPP ratios, R) was performed by an in-house software (CIMAGE) as previously described. The software was advanced to be able to detect and quantify cases where near complete […] blockade of IA-probe labeling was achieved (e.g., very small or no light peak) and assign an empirical ratio cut-off of 15 to each of such cases. […] In the case of probe-modified peptides that were sequenced in one, but not the other runs, a featured algorithm of CIMAGE was utilized to identify the corresponding peak pairs in the runs without the SEQUEST identification and obtain quantification as previously described. […]

[2] = target: ZAK (Homo sapiens, UniProt Q9NYL2); test: SILAC-ABPP with acylphosphate-ATP probe; assay type: binding; design: Full-length cDNA encoding human ZAK-13 (BC001401); expressed in transfected cells; conditions: 100 μM, 30 min; ZAK-transfected HEK293T proteome
Source text: The gel signals for IA-labeling of WT-ZAK were blocked by pretreatment with HNE over a concentration range that closely matched the HNE-sensitivity profile observed for C22 in competitive isoTOP-ABPP experiments (FIG. 4b, compare to FIG. 3a). […] Considering further that C22 is predicted to reside adjacent to the ATP-binding loop of ZAK, we postulated that the HNE-induced loss of kinase activity might be due to blockade of ATP-binding.
HEK-293T cells with stable expression of wild-type ZAK were passaged six times in DMEM medium minus 1-lysine and 1-arginine (Thermo) supplemented 10% dialyzed FBS (Gemini), 1% PSQ (1% vol/vol 10,000 units penicillin, 10 mg streptomycin, 29.2 mg lglutamate solution) and 100 μg/mL [^13C6, ^15N4] 1-arginineHCl and [^13C6,^15N2] 1-lysineHCl (heavy) or 1-arginineHCl and 1-lysineHCl (light) (Sigma-Aldrich). […] The trypsin digested samples were analysed by LC-MS/MS and enriched kinase peptides were identified by SEQUEST and DTASelect. The amounts of probe-labeled kinases with and without HNE treatment were quantified using the CIMAGE module that was developed for quantitative SILAC-ABPP chemoproteomic profiling. As internal controls, light and heavy proteomes were trypsin digested without probe labeling and streptavidin enrichment, and analysed by LC-MS/MS to quantify the basic level of each kinase between light and heavy samples. […]

Chain of ZAK (Q9NYL2 1-455 isoform Q9NYL2-2): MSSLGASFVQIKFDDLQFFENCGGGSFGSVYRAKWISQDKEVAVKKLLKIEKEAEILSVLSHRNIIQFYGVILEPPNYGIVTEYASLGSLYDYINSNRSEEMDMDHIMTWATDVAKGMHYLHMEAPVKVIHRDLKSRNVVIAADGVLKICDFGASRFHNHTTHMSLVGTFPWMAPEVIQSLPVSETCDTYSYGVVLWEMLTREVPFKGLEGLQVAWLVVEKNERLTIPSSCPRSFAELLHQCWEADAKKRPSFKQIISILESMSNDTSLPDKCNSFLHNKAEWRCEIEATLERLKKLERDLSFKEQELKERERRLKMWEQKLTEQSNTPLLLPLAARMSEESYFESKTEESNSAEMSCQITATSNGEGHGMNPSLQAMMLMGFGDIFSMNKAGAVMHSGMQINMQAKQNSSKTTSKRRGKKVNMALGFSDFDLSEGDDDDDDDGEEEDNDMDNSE

CCCCCC(O)/C=C/C=O (centres unmarked) [4-HNE, 4-Hydroxynonenal] was tested, and the IC50 [1] was 60 µM and the “acylphosphate-ATP probe-labeling of ZAK” value [2] was “profoundly reduced”.
